The target in one data set is T1, rh integrin α4β7 (Homo sapiens, UniProt P13612+P26010).
T1 construct: purchased R&D Systems 5397-A30
T1 sequence (P13612 34-977 limits assumed): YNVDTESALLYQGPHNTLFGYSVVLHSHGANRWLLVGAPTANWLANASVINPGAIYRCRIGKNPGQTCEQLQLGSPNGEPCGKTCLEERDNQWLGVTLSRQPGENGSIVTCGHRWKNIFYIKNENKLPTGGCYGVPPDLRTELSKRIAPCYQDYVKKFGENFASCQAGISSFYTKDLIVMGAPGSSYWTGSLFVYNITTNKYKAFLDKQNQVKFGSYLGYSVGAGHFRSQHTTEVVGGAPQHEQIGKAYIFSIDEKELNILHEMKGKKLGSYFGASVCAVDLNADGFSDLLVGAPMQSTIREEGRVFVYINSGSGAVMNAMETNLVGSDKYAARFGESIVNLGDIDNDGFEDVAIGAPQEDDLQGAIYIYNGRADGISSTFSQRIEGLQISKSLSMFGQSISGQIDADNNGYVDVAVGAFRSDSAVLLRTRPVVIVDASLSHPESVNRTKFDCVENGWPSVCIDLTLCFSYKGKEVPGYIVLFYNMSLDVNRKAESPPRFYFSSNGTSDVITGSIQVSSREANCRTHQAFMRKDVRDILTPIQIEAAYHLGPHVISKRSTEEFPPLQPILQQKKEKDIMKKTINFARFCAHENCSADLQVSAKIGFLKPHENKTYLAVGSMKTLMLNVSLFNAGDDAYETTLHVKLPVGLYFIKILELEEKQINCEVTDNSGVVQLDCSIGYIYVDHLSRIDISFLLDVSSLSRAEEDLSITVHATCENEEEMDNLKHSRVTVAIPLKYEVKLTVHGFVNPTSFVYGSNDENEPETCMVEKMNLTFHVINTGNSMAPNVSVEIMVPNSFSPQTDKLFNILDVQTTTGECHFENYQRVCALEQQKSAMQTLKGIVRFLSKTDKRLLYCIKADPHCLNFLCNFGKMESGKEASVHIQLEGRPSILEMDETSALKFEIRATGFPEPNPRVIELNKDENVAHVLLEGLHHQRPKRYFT
T1 sequence (P26010 20-723 limits assumed): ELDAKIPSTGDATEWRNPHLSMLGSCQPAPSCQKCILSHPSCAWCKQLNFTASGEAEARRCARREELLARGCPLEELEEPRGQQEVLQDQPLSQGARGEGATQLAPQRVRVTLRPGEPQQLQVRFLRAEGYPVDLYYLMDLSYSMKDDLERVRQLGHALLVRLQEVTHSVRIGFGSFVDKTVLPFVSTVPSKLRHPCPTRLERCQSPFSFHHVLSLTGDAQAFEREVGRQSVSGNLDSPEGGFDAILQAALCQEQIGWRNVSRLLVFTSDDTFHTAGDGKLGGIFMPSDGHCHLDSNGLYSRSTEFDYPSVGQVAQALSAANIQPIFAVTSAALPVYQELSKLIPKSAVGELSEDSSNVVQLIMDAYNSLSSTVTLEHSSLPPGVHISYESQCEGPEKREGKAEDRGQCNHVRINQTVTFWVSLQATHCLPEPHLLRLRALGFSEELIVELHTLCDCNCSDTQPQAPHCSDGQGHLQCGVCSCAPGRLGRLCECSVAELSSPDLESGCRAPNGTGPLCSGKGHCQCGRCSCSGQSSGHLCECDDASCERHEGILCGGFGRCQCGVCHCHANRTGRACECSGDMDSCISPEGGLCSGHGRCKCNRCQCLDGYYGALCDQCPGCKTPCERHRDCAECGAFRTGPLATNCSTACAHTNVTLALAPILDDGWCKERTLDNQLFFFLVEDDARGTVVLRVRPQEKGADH
Nature of the data set: α4β7-MAdCAM Competition ELISA. Format: binding. Conditions: thioether monomer peptides, Table 6; read-out: ELISA A4B7. On the procedure:
α4β7-MAdCAM Competition ELISA A nickel coated plate (Pierce #15442) was coated with rh integrin α4β[…] Systems #5397-A30) at 800 ng/well and incubated at room temperature with shaking for 1 hr. The solution was then removed by shaking and blocked with assay buffer (50 mM Tris-HCl pH7.6, 150 mM NaCl, 1 mM MnCl2 or MgCl2, 0.05% Tween-20 and 0.5% BSA) at 250 ul/well. The plate was then incubated at room temperature for 1 hr. Each well was washed 3 times with wash buffer (50 mM Tris-HCl pH7.6, 100 mM NaCl, 1 mM MnCl2 or MgCl2, 0.05% Tween-20). To each well was added 25 ul of a serial dilution (3-fold dilutions in assay buffer) of peptides starting at 20 μM. 25 ul of recombinant human MAdCAM-1 (R&D Systems #6056-MC) was then added to each well at a fixed concentration 20 nM. The final starting peptide concentration was 10 μM, and the final MAdCAM-1 concentration was 10 nM. The plates were then incubated at room temperature for 1 hr to reach binding equilibrium. The wells were then washed three times with wash buffer. 50 ul of mouse anti-human IgG1-HRP (Invitrogen #A10648) diluted in 1:2000 in assay buffer was then added to each well. The wells were incubated at room temperature for 45 min with shaking. The wells were then washed 3 times with wash buffer. 100 ul of TMB were then added to each well and closely observe during development time. The reaction was stopped with 2N H2SO4 and absorbance was read at 450 nm.
On the technique in general: In an ELISA, binding on a coated surface is turned into a signal by an enzyme label.

Data set [1] in a line: Simulated Intestinal Fluid (SIF) Stability Assay. Format: in vitro ADME. Conditions: pig, 37° C., monomers, Table 6; for half-life at 22 μM: simulated intestinal fluid (SIF) with 1% porcine pancreatin, pH 6.5, porcine pancreatin; for half-life: porcine pancreatin. Put shortly: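 Percent peptide remaining over time was measured by LC-MS/MS as the peak-area ratio to internal standard, and a first-order decay fit gave half-life. Digests contained 22 μM peptide and 1% pancreatin in pH 6.5 FaSSIF buffer at 37° C. Aliquots were quenched in organic solvent with formic acid.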

Where a SMILES comes first, the peptide text is derived from it. Some results are limits rather than exact numbers.

These results are taken from patent publication US20260217767A1, “NOVEL A4B7 THIOETHER PEPTIDE DIMER ANTAGONISTS” (Protagonist Therapeutics, Inc., priority 2014, published 2026).

The half-life is the time in which the quantity being followed falls by half. High values mean slow loss, low ones fast loss. Take `CC(C)C[C@@H]1NC(=O)[C@H]([C@@H](C)O)NC(=O)[C@H](CC(=O)O)NC(=O)[C@H](CO)NC(=O)[C@H](CCCNC(=N)N)N(C)C(=O)c2ccccc2CSC(C)(C)[C@@H](C(=O)N[C@@H](Cc2ccc3ccccc3c2)C(=O)N[C@@H](CCC(=O)O)CC(=O)N[C@H](CCCCN)C(N)=O)NC1=O` [compound 70]: the IC50 at rh integrin α4β7 is below 25 nM. The half-life at 22 μM in data set [1] is above 3 h.
In the same order, the values of `CC(C)C[C@@H]1NC(=O)[C@H]([C@@H](C)O)NC(=O)[C@H](CC(=O)O)NC(=O)[C@H](CO)NC(=O)[C@H](CCCNC(=N)N)N(C)C(=O)c2ccccc2CSC(C)(C)[C@@H](C(=O)N[C@H](Cc2ccccc2)C(=O)N[C@@H](Cc2ccc3ccccc3c2)C(=O)N[C@H](CCCCN)C(N)=O)NC1=O` [compound 71] (HELM PEPTIDE1{[meR].S.D.T.L.[Pen].[dF].[O=C([C@H](Cc1ccc2ccccc2c1)N[*:1])[*:2]].[dK].[am]}|CHEM1{[O=C(c1ccccc1C[*:2])[*:1]]}$PEPTIDE1,CHEM1,1:R1-1:R1|PEPTIDE1,CHEM1,6:R3-1:R2$$$V2.0) are 25 to 100 nM and above 3 h.
The matching figures for `CC(C)C[C@@H]1NC(=O)[C@H]([C@@H](C)O)NC(=O)[C@H](CC(=O)O)NC(=O)[C@H](CO)NC(=O)[C@H](CCCNC(=N)N)N(C)C(=O)c2ccccc2CSC(C)(C)[C@@H](C(=O)N[C@H](Cc2ccccc2)C(=O)N[C@@H](CCC(=O)O)C(=O)N[C@H](CCCCN)C(N)=O)NC1=O` [compound 72] (HELM PEPTIDE1{[meR].S.D.T.L.[Pen].[dF].E.[dK].[am]}|CHEM1{[O=C(c1ccccc1C[*:2])[*:1]]}$PEPTIDE1,CHEM1,1:R1-1:R1|PEPTIDE1,CHEM1,6:R3-1:R2$$$V2.0): below 25 nM and above 3 h.
In the same order, the values of `CC(C)C[C@@H]1NC(=O)[C@H]([C@@H](C)O)NC(=O)[C@H](CC(=O)O)NC(=O)[C@H](CO)NC(=O)[C@H](CCCNC(=N)N)N(C)C(=O)c2ccccc2CSC(C)(C)[C@@H](C(=O)N[C@@H](Cc2ccccc2)C(=O)N[C@@H](CCC(=O)O)CC(=O)N[C@H](CCCCN)C(N)=O)NC1=O` [compound 73] (HELM PEPTIDE1{[meR].S.D.T.L.[Pen].F.[O=C(O)CC[C@@H](CC(=O)[*:2])N[*:1]].[dK].[am]}|CHEM1{[O=C(c1ccccc1C[*:2])[*:1]]}$PEPTIDE1,CHEM1,1:R1-1:R1|PEPTIDE1,CHEM1,6:R3-1:R2$$$V2.0) are below 25 nM and above 3 h.
Take `CC(C)C[C@@H]1NC(=O)[C@H]([C@@H](C)O)NC(=O)[C@H](CC(=O)O)NC(=O)[C@H](CO)NC(=O)[C@H](CCCNC(=N)N)N(C)C(=O)c2ccccc2CSC(C)(C)[C@@H](C(=O)N[C@@H](Cc2ccc(O)cc2)C(=O)N[C@@H](CCC(=O)O)CC(=O)N[C@H](CCCCN)C(N)=O)NC1=O` [compound 74] (HELM PEPTIDE1{[meR].S.D.T.L.[Pen].Y.[O=C(O)CC[C@@H](CC(=O)[*:2])N[*:1]].[dK].[am]}|CHEM1{[O=C(c1ccccc1C[*:2])[*:1]]}$PEPTIDE1,CHEM1,1:R1-1:R1|PEPTIDE1,CHEM1,6:R3-1:R2$$$V2.0): the IC50 on rh integrin α4β7 was below 25 nM. In data set [1], this compound had a half-life at 22 μM above 3 h.
The matching figures for `CC(C)C[C@@H]1NC(=O)[C@H]([C@@H](C)O)NC(=O)[C@H](CC(=O)O)NC(=O)[C@H](CO)NC(=O)[C@H](CCCNC(=N)N)N(C)C(=O)c2ccccc2CSC(C)(C)[C@@H](C(=O)N[C@@H](Cc2ccc3ccccc3c2)C(=O)N[C@H](CCC(=O)O)C(=O)N[C@H](CCCCN)C(N)=O)NC1=O` [compound 75] (HELM PEPTIDE1{[meR].S.D.T.L.[Pen].[O=C([C@H](Cc1ccc2ccccc2c1)N[*:1])[*:2]].[dE].[dK].[am]}|CHEM1{[O=C(c1ccccc1C[*:2])[*:1]]}$PEPTIDE1,CHEM1,1:R1-1:R1|PEPTIDE1,CHEM1,6:R3-1:R2$$$V2.0): below 25 nM and above 3 h.
For the compound `CC(C)C[C@@H]1NC(=O)[C@H]([C@@H](C)O)NC(=O)[C@H](CC(=O)O)NC(=O)[C@H](CO)NC(=O)[C@H](CCCNC(=N)N)N(C)C(=O)c2ccccc2CSC(C)(C)[C@@H](C(=O)N[C@@H](Cc2ccc(C(F)(F)F)cc2)C(=O)N[C@@H](CCC(=O)O)C(=O)N[C@H](CCCCN)C(N)=O)NC1=O` [compound 76] (HELM PEPTIDE1{[meR].S.D.T.L.[Pen].[O=C([C@H](Cc1ccc(C(F)(F)F)cc1)N[*:1])[*:2]].E.[dK].[am]}|CHEM1{[O=C(c1ccccc1C[*:2])[*:1]]}$PEPTIDE1,CHEM1,1:R1-1:R1|PEPTIDE1,CHEM1,6:R3-1:R2$$$V2.0), the IC50 at rh integrin α4β7 was below 25 nM. The half-life in data set [1] is above 3 h.
Consider `CC(C)C[C@@H]1NC(=O)[C@H]([C@@H](C)O)NC(=O)[C@H](CC(=O)O)NC(=O)[C@H](CO)NC(=O)[C@H](CCCNC(=N)N)N(C)C(=O)c2ccccc2CSC(C)(C)[C@@H](C(=O)N[C@@H](Cc2cccc3ccccc23)C(=O)N[C@@H](CCC(=O)O)C(=O)N[C@H](CCCCN)C(N)=O)NC1=O` [compound 77] (HELM PEPTIDE1{[meR].S.D.T.L.[Pen].[O=C([C@H](Cc1cccc2ccccc12)N[*:1])[*:2]].E.[dK].[am]}|CHEM1{[O=C(c1ccccc1C[*:2])[*:1]]}$PEPTIDE1,CHEM1,1:R1-1:R1|PEPTIDE1,CHEM1,6:R3-1:R2$$$V2.0), for which, on rh integrin α4β7, the IC50 is below 25 nM. The half-life in data set [1] is 1.47 h.
In the case of `CC(C)C[C@@H]1NC(=O)[C@H]([C@@H](C)O)NC(=O)[C@H](CC(=O)O)NC(=O)[C@H](CO)NC(=O)[C@H](CCCNC(=N)N)N(C)C(=O)c2ccccc2CSC(C)(C)[C@@H](C(=O)N[C@@H](Cc2ccc(O)cc2)C(=O)N[C@@H](CCC(=O)O)C(=O)N[C@H](CCCCN)C(N)=O)NC1=O` [compound 78] (HELM PEPTIDE1{[meR].S.D.T.L.[Pen].Y.E.[dK].[am]}|CHEM1{[O=C(c1ccccc1C[*:2])[*:1]]}$PEPTIDE1,CHEM1,1:R1-1:R1|PEPTIDE1,CHEM1,6:R3-1:R2$$$V2.0), the IC50 at rh integrin α4β7 is below 25 nM. Further, the half-life at 22 μM in data set [1] is 1.3 h.
